The molecules below were run against T1, Aminopeptidase N (Sus scrofa, UniProt P15145) (assay: Inhibition of pig kidney aminopeptidase N).
T1 sequence (P15145 whole entry): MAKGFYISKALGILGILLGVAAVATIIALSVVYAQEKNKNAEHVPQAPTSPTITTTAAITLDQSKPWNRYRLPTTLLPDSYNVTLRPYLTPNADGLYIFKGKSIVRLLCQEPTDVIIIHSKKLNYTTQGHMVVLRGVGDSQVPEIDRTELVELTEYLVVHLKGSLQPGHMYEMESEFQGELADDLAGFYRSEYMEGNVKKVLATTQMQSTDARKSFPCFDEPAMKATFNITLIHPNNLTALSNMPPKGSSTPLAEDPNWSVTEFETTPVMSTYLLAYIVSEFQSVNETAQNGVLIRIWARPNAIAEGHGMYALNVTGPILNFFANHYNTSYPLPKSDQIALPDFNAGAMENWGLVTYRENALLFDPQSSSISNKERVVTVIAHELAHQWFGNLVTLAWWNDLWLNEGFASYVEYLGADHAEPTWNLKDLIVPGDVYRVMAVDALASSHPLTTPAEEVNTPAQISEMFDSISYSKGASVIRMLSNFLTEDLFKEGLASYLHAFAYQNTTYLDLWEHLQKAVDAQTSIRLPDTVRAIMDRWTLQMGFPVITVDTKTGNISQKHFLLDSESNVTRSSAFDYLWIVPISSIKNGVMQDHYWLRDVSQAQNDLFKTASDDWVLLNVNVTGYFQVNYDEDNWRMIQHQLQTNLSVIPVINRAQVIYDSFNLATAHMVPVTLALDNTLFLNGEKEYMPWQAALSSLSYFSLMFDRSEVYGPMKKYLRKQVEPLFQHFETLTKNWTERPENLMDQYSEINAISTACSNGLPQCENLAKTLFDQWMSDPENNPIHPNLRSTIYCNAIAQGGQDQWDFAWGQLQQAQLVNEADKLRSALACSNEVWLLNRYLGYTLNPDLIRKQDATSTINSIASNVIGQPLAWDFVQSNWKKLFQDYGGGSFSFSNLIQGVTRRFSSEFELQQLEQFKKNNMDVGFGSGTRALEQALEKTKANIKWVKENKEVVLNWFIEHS

SMILES | IC50 [nM] | Ki [nM]
CCCCCCNC(=S)P(=O)(O)C(N)CC(C)C (configuration not stated) | 500 | 
CNC(=S)P(=O)(O)C(N)CC(C)C (configuration not stated) | 10600 | 
CCCCC(N)P(=O)(O)C(=S)NCCc1ccccc1 (configuration not stated) | 730 | 
CC(N)P(=O)(O)C(=S)NCCc1ccccc1 (configuration not stated) | 4200 | 
COc1ccc(CNC(=S)P(=O)(O)C(C)N)cc1 (configuration not stated) | 1120 | 
CCCCC(N)P(=O)(O)C(=S)NCc1ccc(OC)cc1 (configuration not stated) | 250 | 143
CCCC(N)P(=O)(O)C(=S)NCCc1ccccc1 (configuration not stated) | 2280 | 

Continued by falling IC50, values first:

IC50 [nM] | Ki [nM] | SMILES
1900 |  | CC(C)CNC(=S)P(=O)(O)C(N)C(C)C (configuration not stated)
1180 |  | CCCCCCNC(=S)P(=O)(O)C(N)C(C)C (configuration not stated)
680 |  | CCCC(N)P(=O)(O)C(=S)NCc1ccc(OC)cc1 (configuration not stated)
380 |  | COc1ccc(CNC(=S)P(=O)(O)C(N)CCc2ccccc2)cc1 (configuration not stated)

Reference: ChEMBL document CHEMBL1157452, “First synthesis of alpha-aminoalkyl-(N-substituted)thiocarbamoyl-phosphinates: inhibitors of aminopeptidase N (APN/CD13) with the new zinc-binding group” (Bioorg Med Chem Lett, 2008)
